Experimental data reported in US4064277A, “Method for processing soybeans” (Kikkoman Shoyu Co., Ltd., priority 1974, dated 1977).

Experiments:
β-glycosidase [1] = experiment: minimum effective amount of competitive inhibitor, operation of Example 1 repeated; settings: based on the weight of the whole soybeans
Protocol: 40 Grams of whole soybeans were swelled by soaking at room temperature for 8 hours in 80 ml. of an aqueous solution containing glucono-1,5-lactone as a competitive inhibitor for β-glycosidase in such proportion, based on the weight of the soybeans, as shown in Table 1. In this case, two thirds times the amount of said aqueous solution was incorporated into the soybeans. To the soaked soybeans was added 320 ml. of hot water (at above 95° C.), and the resulting mixture was treated by means of a homogenizer to prepare a ground suspension, which was then filtered by use of a 100-mesh sieve to obtain an extract. The temperature at the time of the homogenization treatment effected with addition of said hot water was above 90° C., and, by said treatment, β-glycosidase contained in the soybeans was completely inactivated, and the mixture was freed from beany odor (grassy smell). The thus obtained extract (soybean milk) was subjected to organoleptic test by drinking to obtain such results as shown in Table 1. The aforesaid operation was repeated, except that the glucono-1,5-lactone was replaced by each of the competitive inhibitors shown in Table 2, and the minimum effective amount of the competitive inhibitor based on the weight of the whole soybeans was calculated. The same operation as in Example 1 was effected, except that the glucono-1,5-lactone was replaced by each of the competitive inhibitors set forth in Table 3, and the minimum effective amount of the competitive inhibitor based on the weight of the whole soybeans was calculated.

β-glycosidase [2] = experiment: β-glycosidase inhibitory ratio in soaked whole soybeans (p-nitrophenyl-β-D-glucopyranoside substrate, 420 mμ); format: biochemical; settings: for β-Glycosidase inhibitory ratio (%): soaking 8 hours at room temperature
Protocol: 40 Grams of whole soybeans were swelled by soaking at room temperature for 8 hours in 80 ml. of an aqueous solution containing glucono-1,5-lactone as a competitive inhibitor for β-glycosidase in such proportion, based on the weight of the soybeans, as shown in Table 1. In this case, two thirds times the amount of said aqueous solution was incorporated into the soybeans. To the soaked soybeans was added 320 ml. of hot water (at above 95° C.), and the resulting mixture was treated by means of a homogenizer to prepare a ground suspension, which was then filtered by use of a 100-mesh sieve to obtain an extract. The temperature at the time of the homogenization treatment effected with addition of said hot water was above 90° C., and, by said treatment, β-glycosidase contained in the soybeans was completely inactivated, and the mixture was freed from beany odor (grassy smell).
^2) The β-glycosidase inhibitory ratio (%) was measured in the
following manner: At the time of soybean soaking, in the above-mentioned
operation, 0.1 weight % based on the weight of the soybeans of
p-nitrophenyl-β-D-glucopyranoside was absorbed together with the
soaking solution into the soybeans. After lapse of the same soaking perio
as mentioned previously, the soybeans were boiled in water for 5 minutes.
Subsequently, the soybeans were soaked in a 2.5M sodium carbonate solutio
to elute p-nitrophenol which had been liberated in the soybeans due to th
action of β-glycosidase. The developed yellow color was determined b
using electrophotometer (420 mμ), and the ratio (%) of
β-glycosidase activity remaining in each sample was subtracted from
100%, assuming as 100% the β-glycosidase activity in the sample of
Run No. 1, which had not been incorporated with glucono-1,5-lactone, to
obtain a value. This value was decided as the inhibitory ratio (%).

Structure (SMILES): C[C@@H]1OC(=O)[C@@H](O)[C@H](O)[C@@H]1O [Fucono-1,5-lactone, fucono-1,5-lactone]
- Minimum effective amount (weight %) (β-glycosidase [1]): 0.02 weight %

Structure (SMILES): O=C1O[C@H](CO)[C@H](O)[C@H](O)[C@H]1O [Galactono-1,5-lactone, galactono-1,5-lactone]
- Minimum effective amount (weight %) (β-glycosidase [1]): 20 weight %

Structure (SMILES): O=C1O[C@H](CO)[C@@H](O)[C@H](O)[C@H]1O [Glucono-1,5-lactone, glucono-1,5-lactone]
- β-Glycosidase inhibitory ratio (%) (β-glycosidase [2]; Run No. 2: amount used 0.0015 weight %, incorporated into soybeans 0.0010 weight %): 13%
- β-Glycosidase inhibitory ratio (%) (β-glycosidase [2]; Run No. 3: amount used 0.015 weight %, incorporated into soybeans 0.010 weight %): 49%
- β-Glycosidase inhibitory ratio (%) (β-glycosidase [2]; Run No. 4: amount used 0.15 weight %, incorporated into soybeans 0.10 weight %): 73%
- β-Glycosidase inhibitory ratio (%) (β-glycosidase [2]; Run No. 5: amount used 1.5 weight %, incorporated into soybeans 1.0 weight %): 90%
- activity of β-glycosidase in the soybeans (β-glycosidase [2]; whole soybeans impregnated with 0.10 weight % or more, as aqueous solution): greatly inhibited

Structure (SMILES): OC[C@H]1OC(O)[C@H](O)[C@@H](O)[C@@H]1O (stereo partly drawn) [Glucose, glucose]
- Minimum effective amount (weight %) (β-glycosidase [1]): 40 weight %

Structure (SMILES): OC[C@H]1NC(O)[C@H](O)[C@@H](O)[C@@H]1O (stereo partly drawn) [Nojirimycin]
- Minimum effective amount (weight %) (β-glycosidase [1]): 0.01 weight %
